Results reported in ChEMBL document CHEMBL5252675, “Discovery of new 5-substituted-indole-2-carboxamides as dual epidermal growth factor receptor (EGFR)/cyclin dependent kinase-2 (CDK2) inhibitors with potent antiproliferative action” (RSC Med Chem, 2023).
pIC50: −log10 of the molar value.

What was measured:
MCF-10A = experiment: Cytotoxicity against human MCF-10A cells assessed as reduction in cell viability at 50 uM incubated for 4 days by MTT assay; format: toxicity, cell-based; settings: 96 h, time 4 day
A549 = experiment: Antiproliferative activity against human A549 cells by MTT assay; format: functional, cell-based
MCF7 = experiment: Antiproliferative activity against human MCF7 cells by MTT assay; format: functional, cell-based
PANC-1 = experiment: Antiproliferative activity against human PANC-1 cells by MTT assay; format: functional, cell-based
HT-29 = experiment: Antiproliferative activity against human HT-29 cells by MTT assay; format: functional, cell-based
[1] = target: Cyclin-dependent kinase 2 (Homo sapiens, UniProt P24941)
Description: Inhibition of CDK2 (unknown origin)

[2] = target: Epidermal growth factor receptor (Homo sapiens, UniProt P00533); experiment: Inhibition of EGFR (unknown origin)
Chain of Epidermal growth factor receptor (P00533 whole entry): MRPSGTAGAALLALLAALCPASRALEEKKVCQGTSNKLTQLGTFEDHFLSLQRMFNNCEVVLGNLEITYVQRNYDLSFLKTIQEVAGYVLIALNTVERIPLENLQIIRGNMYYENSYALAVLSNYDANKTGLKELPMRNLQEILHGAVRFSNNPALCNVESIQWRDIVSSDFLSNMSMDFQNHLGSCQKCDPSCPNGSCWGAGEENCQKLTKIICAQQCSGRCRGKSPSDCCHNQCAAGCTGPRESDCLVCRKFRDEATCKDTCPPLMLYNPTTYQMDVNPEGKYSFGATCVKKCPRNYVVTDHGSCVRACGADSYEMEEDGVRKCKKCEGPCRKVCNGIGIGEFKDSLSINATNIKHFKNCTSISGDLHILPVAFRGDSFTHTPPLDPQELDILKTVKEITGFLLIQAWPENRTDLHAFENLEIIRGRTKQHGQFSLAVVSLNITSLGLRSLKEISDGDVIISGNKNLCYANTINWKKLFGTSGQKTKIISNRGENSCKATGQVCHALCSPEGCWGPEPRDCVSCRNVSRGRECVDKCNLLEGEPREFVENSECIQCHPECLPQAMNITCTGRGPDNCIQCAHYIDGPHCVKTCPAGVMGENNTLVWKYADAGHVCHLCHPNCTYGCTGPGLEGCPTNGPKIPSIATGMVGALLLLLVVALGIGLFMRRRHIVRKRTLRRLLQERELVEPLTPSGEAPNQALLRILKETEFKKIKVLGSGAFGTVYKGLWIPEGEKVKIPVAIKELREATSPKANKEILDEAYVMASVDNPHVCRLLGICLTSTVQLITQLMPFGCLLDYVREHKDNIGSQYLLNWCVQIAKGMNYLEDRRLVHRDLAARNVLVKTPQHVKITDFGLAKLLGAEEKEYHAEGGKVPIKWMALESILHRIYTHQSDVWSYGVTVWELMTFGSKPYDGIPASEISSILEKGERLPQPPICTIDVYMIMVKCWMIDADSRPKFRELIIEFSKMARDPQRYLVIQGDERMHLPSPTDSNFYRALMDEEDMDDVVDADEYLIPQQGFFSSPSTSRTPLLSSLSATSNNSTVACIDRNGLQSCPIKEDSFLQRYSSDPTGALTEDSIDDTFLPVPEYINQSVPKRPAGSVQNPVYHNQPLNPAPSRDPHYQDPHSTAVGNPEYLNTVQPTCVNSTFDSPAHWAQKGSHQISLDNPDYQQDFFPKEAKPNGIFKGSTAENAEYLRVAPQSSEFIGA

Compound	pIC50 (A549)	pIC50 (MCF7)	pIC50 (PANC-1)	pIC50 (HT-29)	pIC50 [1]	pIC50 [2]	Activity (MCF-10A) [%]
CCc1c(C(=O)NCCc2ccc(N3CCCC3C)cc2)[nH]c2ccc(Br)cc12 (stereo not given)	6.76	6.73	6.72	6.71			86
Cc1c(C(=O)NCCc2ccc(F)cc2)[nH]c2cc(F)ccc12					7.47	7.01	
CCc1c(C(=O)NCCc2ccccc2)[nH]c2ccc(Br)cc12	6.86	6.85	6.84	6.83			89
CCc1c(C(=O)N2CCN(c3ccccc3)CC2)[nH]c2ccc(C(F)(F)F)cc12	6.93	6.91	6.89	6.89			91
CCc1c(C(=O)N2CCN(c3ccccc3)CC2)[nH]c2ccc(Br)cc12	6.73	6.72	6.71	6.69			85
CCc1c(C(=O)NCCc2ccc(N3CCOCC3)cc2)[nH]c2ccc(C)cc12	7.47	7.38	7.46	7.43	7.80	7.07	89
CCc1c(C(=O)NCCc2ccc(N3CCOCC3)cc2)[nH]c2ccc(Br)cc12	7.17	7.13	7.12	7.10			91

Further molecules by rising pIC50 (A549), results first:

pIC50 (A549)	pIC50 (MCF7)	pIC50 (PANC-1)	pIC50 (HT-29)	pIC50 [1]	pIC50 [2]	Compound	Activity (MCF-10A) [%]
6.80	6.79	6.78	6.77			CCc1c(C(=O)NCCc2ccccc2)[nH]c2ccc(C(F)(F)F)cc12	88
6.90	6.88	6.86	6.85			CCc1c(C(=O)N2CCN(c3ccccc3)CC2)[nH]c2ccc(C)cc12	90
6.97	6.95	6.94	6.92			CCc1c(C(=O)NCCc2ccc(N(C)C)cc2)[nH]c2ccc(Br)cc12	91
7.05	7.03	7.01	7.01			CCc1c(C(=O)NCCc2ccc(N3CCCCC3)cc2)[nH]c2ccc(Br)cc12	90
7.11	7.09	7.07	7.06			CCc1c(C(=O)NCCc2ccc(N3CCCCC3)cc2)[nH]c2ccc(C(F)(F)F)cc12	85
7.19	7.16	7.14	7.12	7.34	6.87	CCc1c(C(=O)NCCc2ccccc2)[nH]c2ccc(C)cc12	87
7.29	7.27	7.23	7.24	7.48	6.93	CCc1c(C(=O)NCCc2ccc(N3CCCCC3)cc2)[nH]c2ccc(C)cc12	89
7.37	7.35	7.28	7.26	7.62	7.03	CCc1c(C(=O)NCCc2ccc(N3CCOCC3)cc2)[nH]c2ccc(C(F)(F)F)cc12	87
